# From patent US7494984B2, “Substituted imidazo[1,2-a]pyrimidines as HIV viral DNA integrase inhibitors” (priority 2005, dated 2009)
# Target: T1, HIV-integrase (Human immunodeficiency virus type 1 group M subtype B, UniProt P12497)
# T1 construct: Recombinant integrase (0.26 ng) was incubated with the beads
# Experiment: HIV-Integrase Inhibition Activity (SPA strand transfer assay)
# Format: biochemical
# Settings: recombinant integrase, biotin labeled substrate DNA on SPA beads, P33 labeled target DNA; read-out: Activity (IC50 class, HIV-integrase inhibition)
# Experimental: HIV-Integrase Inhibition Activity. To evaluate in-vitro activity against HIV-integrase, 5 pmole of biotin labeled substrate DNA was bound to 100 μg of Streptavidin coated PVT SPA beads (Amersham Pharmacia Biotech). Recombinant integrase (0.26 ng) was incubated with the beads for 90 min at 37° C. Unbound enzyme was removed by washing the complex followed by addition of inhibitors and 0.1 fmol of P33 labeled target DNA. The reaction was stopped by adding EDTA to a final concentration of 10 mM. Samples were counted in TopCountNXT (Packard) and the CPM was used as a measure of integration. The reaction condition was as described in A. Engelman and R. Craigie, J. Virol. 69, 5908-5911 (1995). The sequences of substrate and target DNA were described in Nucleic Acid Research 22,1121-1122 (1994). Activity equal to A refers to a compound having IC50=0.005 to 0.010 μM while B and C denote compounds having IC50=0.010 to 0.030 μM and IC50>0.030 μM respectively.
row,Compound,IC50 [nM]
1,"CN1CCn2c1nc(C(=O)NCc1ccc(F)cc1)c(O)c2=O [Example 1, N-(4Fluorobenzyl)-6-hydroxy-1-methyl-5-oxo-1,2,3,5-tetrahydroimidazo[1,2-a]pyrimidine-7-carboxamide]",10 to 30
2,"Cc1cc(CNC(=O)c2nc3n(c(=O)c2O)CCN3C)ccc1F [Example 2, N-(4-Fluoro-3-methylbenzyl)-6-hydroxy-1-methyl-5-oxo-1,2,3,5-tetrahydroimidazo[1,2-a]pyrimidine-7-carboxamide]",10 to 30
3,"CNC(=O)c1cc(F)ccc1CNC(=O)c1nc2n(c(=O)c1O)CCN2C [Example 3, N-(4-Fluoro-2-(methylcarbamoyl)benzyl)-6-hydroxy-1-methyl-5-oxo-1,2,3,5-tetrahydroimidazo[1,2-a]pyrimidine-7-carboxamide]",10 to 30
4,"CC(C)N1CCn2c1nc(C(=O)NCc1ccc(F)cc1)c(O)c2=O [Example 4, N-(4-Fluorobenzyl)-6-hydroxy-1-isopropyl-5-oxo-1,2,3,5-tetrahydroimidazo[1,2-a]pyrimidine-7-carboxamide]",10 to 30
5,"Cc1cc(CNC(=O)c2nc3n(c(=O)c2O)CCN3C(C)C)ccc1F [Example 5, N-(4-Fluoro-3-methylbenzyl)-6-hydroxy-1-isopropyl-5-oxo-1,2,3,5-tetrahydroimidazo[1,2-a]pyrimidine-7-carboxamide]",10 to 30
6,"CNC(=O)c1cc(F)ccc1CNC(=O)c1nc2n(c(=O)c1O)CCN2C(C)C [Example 6, N-(4-Fluoro-2-(methylcarbamoyl)benzyl)-6-hydroxy-1-isopropyl-5-oxo-1,2,3,5-tetrahydroimidazo[1,2-a]pyrimidine-7-carboxamide]",10 to 30
7,"CC(C)N1CCn2c1nc(C(=O)NCc1ccc(F)cc1-n1cncn1)c(O)c2=O [Example 7, N-(4-Fluoro-2-(1H-1,2,4-triazol-1-yl)benzyl)-6-hydroxy-1-isopropyl-5-oxo-1,2,3,5-tetrahydroimidazo[1,2-a]pyrimidine-7-carboxamide]",10 to 30
8,"CC(C)N1CCn2c1nc(C(=O)NCc1ccc(F)cc1S(=O)(=O)N(C)C)c(O)c2=O [Example 8, N-(4-Fluoro-2-(N,N-dimethylsulfamoyl)benzyl)-6-hydroxy-1-isopropyl-5-oxo-1,2,3,5-tetrahydroimidazo[1,2-a]pyrimidine-7-carboxamide]",5 to 10
9,"Cc1ncn(-c2cc(F)ccc2CNC(=O)c2nc3n(c(=O)c2O)CCN3C(C)C)n1 [Example 9, N-(4-Fluoro-2-(3-methyl-1H-1,2,4-triazol-1-yl)benzyl)-6-hydroxy-1-isopropyl-5-oxo-1,2,3,5-tetrahydroimidazo[1,2-a]pyrimidine-7-carboxamide]",10 to 30
10,"Cc1ncnn1-c1cc(F)ccc1CNC(=O)c1nc2n(c(=O)c1O)CCN2C(C)C [Example 10, N-(4-Fluoro-2-(5-methyl-1H-1,2,4-triazol-1-yl)benzyl)-6-hydroxy-1-isopropyl-5-oxo-1,2,3,5-tetrahydroimidazo[1,2-a]pyrimidine-7-carboxamide]",> 30
11,"CCCCN1CCn2c1nc(C(=O)NCc1ccc(F)cc1)c(O)c2=O [Example 11, N-(4-Fluorobenzyl)-1-butyl-6-hydroxy-5-oxo-1,2,3,5-tetrahydroimidazo[1,2-a]pyrimidine-7-carboxamide]",5 to 10
12,"CCCCN1CCn2c1nc(C(=O)NCc1ccc(F)c(C)c1)c(O)c2=O [Example 12, N-(4-Fluoro-3-methylbenzyl)-1-butyl-6-hydroxy-5-oxo-1,2,3,5-tetrahydroimidazo[1,2-a]pyrimidine-7-carboxamide]",10 to 30
13,"CCCCN1CCn2c1nc(C(=O)NCc1ccc(F)cc1C(=O)NC)c(O)c2=O [Example 13, N-(4-Fluoro-2-(methylcarbamoyl)benzyl)-1-butyl-6-hydroxy-5-oxo-1,2,3,5-tetrahydroimidazo[1,2-a]pyrimidine-7-carboxamide]",10 to 30
14,"CCCCN1CCn2c1nc(C(=O)NCc1ccc(F)cc1S(=O)(=O)N(C)C)c(O)c2=O [Example 14, N-(4-Fluoro-2-(N,N-dimethylsulfamoyl)benzyl)-1-butyl-6-hydroxy-5-oxo-1,2,3,5-tetrahydroimidazo[1,2-a]pyrimidine-7-carboxamide]",10 to 30
15,"CCCCN1CCn2c1nc(C(=O)NCc1ccc(F)cc1-n1cnc(C)n1)c(O)c2=O [Example 15, N-(4-Fluoro-2-(3-methyl-1H-1,2,4-triazol-1-yl)benzyl)-1-butyl-6-hydroxy-5-oxo-1,2,3,5-tetrahydroimidazo[1,2-a]pyrimidine-7-carboxamide]",5 to 10
16,"O=C(NCc1ccc(F)cc1)c1nc2n(c(=O)c1O)CCN2Cc1ccccc1 [Example 16, N-(4-Fluorobenzyl)-1-benzyl-6-hydroxy-5-oxo-1,2,3,5-tetrahydroimidazo[1,2-a]pyrimidine-7-carboxamide]",> 30
17,"Cc1cc(CNC(=O)c2nc3n(c(=O)c2O)CCN3Cc2ccccc2)ccc1F [Example 17, N-(4-Fluoro-3-methylbenzyl)-1-benzyl-6-hydroxy-5-oxo-1,2,3,5-tetrahydroimidazo[1,2-a]pyrimidine-7-carboxamide]",10 to 30
18,"O=C(NCc1ccc(F)cc1)c1nc2n(c(=O)c1O)CCN2c1ccccc1 [Example 20, N-(4-Fluorobenzyl)-6-hydroxy-5-oxo-1-phenyl-1,2,3,5-tetrahydroimidazo[1,2-a]pyrimidine-7-carboxamide]",5 to 10

row,Compound,IC50 [nM]
1,"Cc1cc(CNC(=O)c2nc3n(c(=O)c2O)CCN3c2ccccc2)ccc1F [Example 21, N-(4-Fluoro-3-methylbenzyl)-6-hydroxy-5-oxo-1-phenyl-1,2,3,5-tetrahydroimidazo[1,2-a]pyrimidine-7-carboxamide]",5 to 10
2,"CNC(=O)c1cc(F)ccc1CNC(=O)c1nc2n(c(=O)c1O)CCN2c1ccccc1 [Example 22, N-(4-Fluoro-2-(methylcarbamoyl)benzyl)-6-hydroxy-5-oxo-1-phenyl-1,2,3,5-tetrahydroimidazo[1,2-a]pyrimidine-7-carboxamide]",10 to 30
3,"O=C(NCc1ccc(F)cc1-n1cncn1)c1nc2n(c(=O)c1O)CCN2c1ccccc1 [Example 23, N-(4-Fluoro-2-(1H-1,2,4-triazol-1-yl)benzyl)-6-hydroxy-5-oxo-1-phenyl-1,2,3,5-tetrahydroimidazo[1,2-a]pyrimidine-7-carboxamide]",5 to 10
4,"Cc1ncn(-c2cc(F)ccc2CNC(=O)c2nc3n(c(=O)c2O)CCN3c2ccccc2)n1 [Example 24, N-(4-Fluoro-2-(3-methyl-1H-1,2,4-triazol-1-yl)benzyl)-6-hydroxy-5-oxo-1-phenyl-1,2,3,5-tetrahydroimidazo[1,2-a]pyrimidine-7-carboxamide]",5 to 10
5,"Cc1ncnn1-c1cc(F)ccc1CNC(=O)c1nc2n(c(=O)c1O)CCN2c1ccccc1 [Example 25, N-(4-Fluoro-2-(5-methyl-1H-1,2,4-triazol-1-yl)benzyl)-6-hydroxy-5-oxo-1-phenyl-1,2,3,5-tetrahydroimidazo[1,2-a]pyrimidine-7-carboxamide]",10 to 30
6,"CN(C)S(=O)(=O)c1cc(F)ccc1CNC(=O)c1nc2n(c(=O)c1O)CCN2c1ccccc1 [Example 26, N-(4-Fluoro-2-(N,N-dimethylsulfamoyl)benzyl)-6-hydroxy-5-oxo-1-phenyl-1,2,3,5-tetrahydroimidazo[1,2-a]pyrimidine-7-carboxamide]",10 to 30
7,"O=C(NCc1ccc(F)cc1N1CCCC1=O)c1nc2n(c(=O)c1O)CCN2c1ccccc1 [Example 27, N-(4-Fluoro-2-(2-oxopyrrolidin-1-yl)benzyl)-6-hydroxy-5-oxo-1-phenyl-1,2,3,5-tetrahydroimidazo[1,2-a]pyrimidine-7-carboxamide]",10 to 30
8,"O=C(NCc1ccc(F)cc1N1CCC1=O)c1nc2n(c(=O)c1O)CCN2c1ccccc1 [Example 28, N-(4-Fluoro-2-(2-oxoazetidin-1-yl)benzyl)-6-hydroxy-5-oxo-1-phenyl-1,2,3,5-tetrahydroimidazo[1,2-a]pyrimidine-7-carboxamide]",5 to 10
9,O=C(NCc1ccc(F)cc1)c1nc2n(c(=O)c1O)CCN2C1CCCCC1 [Example 32],5 to 10
10,Cc1cc(CNC(=O)c2nc3n(c(=O)c2O)CCN3C2CCCCC2)ccc1F [Example 33],5 to 10
11,O=C(NCc1ccc(F)cc1-n1cncn1)c1nc2n(c(=O)c1O)CCN2C1CCCCC1 [Example 34],5 to 10
12,CN(C)S(=O)(=O)c1cc(F)ccc1CNC(=O)c1nc2n(c(=O)c1O)CCN2C1CCCCC1 [Example 35],10 to 30
13,CNC(=O)c1cc(F)ccc1CNC(=O)c1nc2n(c(=O)c1O)CCN2CCOC [Example 36],10 to 30
14,COCCN1CCn2c1nc(C(=O)NCc1ccc(F)cc1-n1cncn1)c(O)c2=O [Example 37],10 to 30
15,COCCN1CCn2c1nc(C(=O)NCc1ccc(F)cc1S(=O)(=O)N(C)C)c(O)c2=O [Example 38],> 30
16,COCCN1CCn2c1nc(C(=O)NCc1ccc(F)cc1-n1cnc(C)n1)c(O)c2=O [Example 39],> 30
17,CS(=O)(=O)c1cc(F)ccc1CNC(=O)c1nc2n(c(=O)c1O)CCN2c1ccccc1 [Example 40],5 to 10
18,CCCCN1CCn2c1nc(C(=O)NCc1ccc(F)cc1-n1cncn1)c(O)c2=O [Example 41],10 to 30

# System: not given
# Experiment: not given
# Settings: not given
row,Compound,melting point
1,"CN1CCn2c1nc(C(=O)NCc1ccc(F)cc1)c(O)c2=O [Example 1, N-(4Fluorobenzyl)-6-hydroxy-1-methyl-5-oxo-1,2,3,5-tetrahydroimidazo[1,2-a]pyrimidine-7-carboxamide]",212 °C
2,"Cc1cc(CNC(=O)c2nc3n(c(=O)c2O)CCN3C)ccc1F [Example 2, N-(4-Fluoro-3-methylbenzyl)-6-hydroxy-1-methyl-5-oxo-1,2,3,5-tetrahydroimidazo[1,2-a]pyrimidine-7-carboxamide]",187 to 189 °C
3,"CNC(=O)c1cc(F)ccc1CNC(=O)c1nc2n(c(=O)c1O)CCN2C(C)C [Example 6, N-(4-Fluoro-2-(methylcarbamoyl)benzyl)-6-hydroxy-1-isopropyl-5-oxo-1,2,3,5-tetrahydroimidazo[1,2-a]pyrimidine-7-carboxamide]",205 °C (dec.)
4,"Cc1ncnn1-c1cc(F)ccc1CNC(=O)c1nc2n(c(=O)c1O)CCN2C(C)C [Example 10, N-(4-Fluoro-2-(5-methyl-1H-1,2,4-triazol-1-yl)benzyl)-6-hydroxy-1-isopropyl-5-oxo-1,2,3,5-tetrahydroimidazo[1,2-a]pyrimidine-7-carboxamide]",212 °C
5,"CCCCN1CCn2c1nc(C(=O)NCc1ccc(F)cc1C(=O)NC)c(O)c2=O [Example 13, N-(4-Fluoro-2-(methylcarbamoyl)benzyl)-1-butyl-6-hydroxy-5-oxo-1,2,3,5-tetrahydroimidazo[1,2-a]pyrimidine-7-carboxamide]",175 to 177 °C
6,"CCCCN1CCn2c1nc(C(=O)NCc1ccc(F)cc1-n1cnc(C)n1)c(O)c2=O [Example 15, N-(4-Fluoro-2-(3-methyl-1H-1,2,4-triazol-1-yl)benzyl)-1-butyl-6-hydroxy-5-oxo-1,2,3,5-tetrahydroimidazo[1,2-a]pyrimidine-7-carboxamide]",214 °C
7,"O=C(NCc1ccc(F)cc1)c1nc2n(c(=O)c1O)CCN2Cc1ccccc1 [Example 16, N-(4-Fluorobenzyl)-1-benzyl-6-hydroxy-5-oxo-1,2,3,5-tetrahydroimidazo[1,2-a]pyrimidine-7-carboxamide]",225 °C
